The test system of one assay is MOLT-4. Briefly: Cell viability assay (MTS) in MOLT-4 cells. In kind it is cell-based. The settings on record: Homo sapiens, MOLT-4, 48 hr, MTS, read-out: Anti-Cancer Activity IC50 (48 hr) MOLT-4. The method, then:
(§1) Acute lymphoblastic leukemia cells (MOLT-4 and RS4; 11) were incubated with increasing concentrations of Bcl-xL degraders for 48 h. Cell viability was measured by tetrazolium-based MTS assay.

A further assay has as its system RS4; 11. Briefly: Cell viability assay (MTS) in RS4; 11 cells. Type of assay: cell-based. The settings on record: 48 hr, MTS; for IC50: Homo sapiens, RS4-11, read-out: Anti-Cancer Activity IC50 (48 hr) RS4, 11. Set-up: Anti-Cancer Activity IC50 (48 hr) RS4; 11: scale not given here. On the procedure:
as §1

SMILES strings stand for the structures. Where two headings read alike, the source gives them in different places.

For `Cc1ncsc1-c1ccc([C@H](C)NC(=O)[C@@H]2C[C@@H](O)CN2C(=O)[C@@H](NC(=O)CCCCCCC(=O)N2CCN(CCC3(C)CCC(c4ccc(Cl)cc4)=C(CN4CCN(c5ccc(C(=O)NS(=O)(=O)c6ccc(N[C@H](CCN7CCOCC7)CSc7ccccc7)c(S(=O)(=O)C(F)(F)F)c6)cc5)CC4)C3)CC2)C(C)(C)C)cc1` (stereo partly drawn) [Compound 28, (2S,4R)-1-((2S)-2-(8-(4-(2-(4′-chloro-4-methyl-6-((4-(4-(((4-(((R)-4-morpholino-1-(phenylthio)butan-2-yl)amino)-3-((trifluoromethyl)sulfonyl)phenyl)sulfonyl)carbamoyl)phenyl)piperazin-1-yl)methyl)-2,3,4,5-tetrahydro-[1,1′-biphenyl]-4-yl)ethyl)piperazin-1-yl)-8-oxooctanamido)-3,3-dimethylbutanoyl)-4-hydroxy-N—((S)-1-(4-(4-methylthiazol-5-yl)phenyl)ethyl)pyrrolidine-2-carboxamide], the IC50 – broadly, the concentration that inhibits the measured activity by half – in the assay on MOLT-4 (Table 2) lay within 0.1 to 0.5 µM; in the assay on RS4; 11 (Table 2), 0.02 to 0.1 µM.
For `Cc1ncsc1-c1ccc([C@H](C)NC(=O)[C@@H]2C[C@@H](O)CN2C(=O)[C@@H](NC(=O)CCCCCCC(=O)N2CCN(CC3(C)CCC(c4ccc(Cl)cc4)=C(CN4CCN(c5ccc(C(=O)NS(=O)(=O)c6ccc(N[C@H](CCN7CCC(CO)CC7)CSc7ccccc7)c([N+](=O)[O-])c6)cc5)CC4)C3)CC2)C(C)(C)C)cc1` (stereo partly drawn) [Compound 47, (2S,4R)-1-((2S)-2-(8-(4-((4′-chloro-6-((4-(4-(((4-(((R)-4-(4-(hydroxymethyl)piperidin-1-yl)-1-(phenylthio)butan-2-yl)amino)-3-nitrophenyl)sulfonyl)carbamoyl)phenyl)piperazin-1-yl)methyl)-4-methyl-2,3,4,5-tetrahydro-[1,1′-biphenyl]-4-yl)methyl)piperazin-1-yl)-8-oxooctanamido)-3,3-dimethylbutanoyl)-4-hydroxy-N—((S)-1-(4-(4-methylthiazol-5-yl)phenyl)ethyl)pyrrolidine-2-carboxamide] the same measures were 0.1 to 0.5 µM and 0.02 to 0.1 µM.
As to `Cc1ncsc1-c1ccc([C@H](C)NC(=O)[C@@H]2C[C@@H](O)CN2C(=O)[C@@H](NC(=O)CCCCCCC(=O)N2CCN(CC3(C)CCC(c4ccc(Cl)cc4)=C(CN4CCN(c5ccc(C(=O)NS(=O)(=O)c6ccc(N[C@H](CCN(C)C7CC7)CSc7ccccc7)c([N+](=O)[O-])c6)cc5)CC4)C3)CC2)C(C)(C)C)cc1` (stereo partly drawn) [Compound 35, (2S,4R)-1-((2S)-2-(8-(4-((4′-chloro-6-((4-(4-(((4-(((R)-4-(cyclopropyl(methyl)amino)-1-(phenylthio)butan-2-yl)amino)-3-nitrophenyl)sulfonyl)carbamoyl)phenyl)piperazin-1-yl)methyl)-4-methyl-2,3,4,5-tetrahydro-[1,1′-biphenyl]-4-yl)methyl)piperazin-1-yl)-8-oxooctanamido)-3,3-dimethylbutanoyl)-4-hydroxy-N—((S)-1-(4-(4-methylthiazol-5-yl)phenyl)ethyl)pyrrolidine-2-carboxamide], the IC50 in the assay with MOLT-4 (Table 2) was in the range of 0.02 to 0.1 µM. The “Anti-Cancer Activity IC50 (48 hr) RS4; 11” value with RS4; 11 (Table 2) is “+ ++”.
On to `Cc1ncsc1-c1ccc([C@H](C)NC(=O)[C@@H]2C[C@@H](O)CN2C(=O)[C@@H](NC(=O)CCCCCNC(=O)c2ccc(N3CCN(CCN(C)CC4(C)CCC(c5ccc(Cl)cc5)=C(CN5CCN(c6ccc(C(=O)NS(=O)(=O)c7ccc(N[C@H](CCN8CCOCC8)CSc8ccccc8)c(S(=O)(=O)C(F)(F)F)c7)cc6)CC5)C4)CC3)nc2)C(C)(C)C)cc1` (some centres unmarked) [Compound 9], for which the IC50 in the assay on MOLT-4 (Table 2) and in the assay with RS4; 11 (Table 2) was 0.02 to 0.1 µM in each case.
Take `Cc1ncsc1-c1ccc([C@H](C)NC(=O)[C@@H]2C[C@@H](O)CN2C(=O)[C@@H](NC(=O)CN(C)CC(=O)N2CCC(C3CCN(C[C@]4(C)CCC(c5ccc(Cl)cc5)=C(CN5CCN(c6ccc(C(=O)NS(=O)(=O)c7ccc(N[C@H](CCN8CCCOCC8)CSc8ccccc8)c(S(=O)(=O)C(F)(F)F)c7)cc6)CC5)C4)CC3)CC2)C(C)(C)C)cc1` [Compound 118]: the IC50 in the assay with MOLT-4 (Table 2A) and in the assay with RS4; 11 (Table 2A) was below 0.02 µM throughout.
Consider `Cc1ncsc1-c1ccc([C@H](C)NC(=O)[C@@H]2C[C@@H](O)CN2C(=O)[C@@H](NC(=O)CCCCCCC(=O)N2CCN(C[C@]3(C)CCC(c4ccc(Cl)cc4)=C(CN4CCN(c5ccc(C(=O)NS(=O)(=O)c6ccc(N[C@H](CCN7CCCOCC7)CSc7ccccc7)c(S(=O)(=O)C(F)(F)F)c6)cc5)CC4)C3)C[C@H]2C)C(C)(C)C)cc1` [Compound 81], for which the IC50 with MOLT-4 (Table 2) and in the assay on RS4; 11 (Table 2) was below 0.02 µM each time.
In the case of `Cc1ncsc1-c1ccc([C@H](C)NC(=O)[C@@H]2C[C@@H](O)CN2C(=O)[C@@H](NC(=O)CCCCCCC(=O)N2CCN(CC3(C)CCC(c4ccc(Cl)cc4)=C(CN4CCN(c5ccc(C(=O)NS(=O)(=O)c6ccc(N[C@H](CCO)CSc7ccccc7)c([N+](=O)[O-])c6)cc5)CC4)C3)CC2)C(C)(C)C)cc1` (stereo partly drawn) [Compound 49, (2S,4R)-1-((2S)-2-(8-(4-((4′-chloro-6-((4-(4-(((4-(((R)-4-hydroxy-1-(phenylthio)butan-2-yl)amino)-3-nitrophenyl)sulfonyl)carbamoyl)phenyl)piperazin-1-yl)methyl)-4-methyl-2,3,4,5-tetrahydro-[1,1′-biphenyl]-4-yl)methyl)piperazin-1-yl)-8-oxooctanamido)-3,3-dimethylbutanoyl)-4-hydroxy-N—((S)-1-(4-(4-methylthiazol-5-yl)phenyl)ethyl)pyrrolidine-2-carboxamide], the IC50 lay within 0.5 to 10 µM with MOLT-4 (Table 2) and 0.02 to 0.1 µM in the assay on RS4; 11 (Table 2).
The corresponding values for `CC(=O)N1CCN(CC[C@H](CSc2ccccc2)Nc2ccc(S(=O)(=O)NC(=O)c3ccc(N4CCN(CC5=C(c6ccc(Cl)cc6)CCC(C)(CN6CCN(C(=O)CCCCCCC(=O)N[C@H](C(=O)N7C[C@H](O)C[C@H]7C(=O)N[C@@H](C)c7ccc(-c8scnc8C)cc7)C(C)(C)C)CC6)C5)CC4)cc3)cc2[N+](=O)[O-])CC1` (stereo partly drawn) [Compound 48, (2S,4R)-1-((2S)-2-(8-(4-((6-((4-(4-(((4-(((R)-4-(4-acetylpiperazin-1-yl)-1-(phenylthio)butan-2-yl)amino)-3-nitrophenyl)sulfonyl)carbamoyl)phenyl)piperazin-1-yl)methyl)-4′-chloro-4-methyl-2,3,4,5-tetrahydro-[1,1′-biphenyl]-4-yl)methyl)piperazin-1-yl)-8-oxooctanamido)-3,3-dimethylbutanoyl)-4-hydroxy-N—((S)-1-(4-(4-methylthiazol-5-yl)phenyl)ethyl)pyrrolidine-2-carboxamide] are 0.02 to 0.1 µM and below 0.02 µM.
For the compound `Cc1ncsc1-c1ccc([C@H](C)NC(=O)[C@@H]2C[C@@H](O)CN2C(=O)[C@@H](NC(=O)CNC(=O)c2ccc(N3CCN(CC4(C)CCC(c5ccc(Cl)cc5)=C(CN5CCN(c6ccc(C(=O)NS(=O)(=O)c7ccc(N[C@H](CCN8CCOCC8)CSc8ccccc8)c(S(=O)(=O)C(F)(F)F)c7)cc6)CC5)C4)CC3)cc2)C(C)(C)C)cc1` (stereo partly drawn) [Compound 10, (2S,4R)-1-((2S)-2-(2-(4-(4-((4′-chloro-4-methyl-6-((4-(4-(((4-(((R)-4-morpholino-1-(phenylthio)butan-2-yl)amino)-3-((trifluoromethyl)sulfonyl)phenyl)sulfonyl)carbamoyl)phenyl)piperazin-1-yl)methyl)-2,3,4,5-tetrahydro-[1,1′-biphenyl]-4-yl)methyl)piperazin-1-yl)benzamido)acetamido)-3,3-dimethylbutanoyl)-4-hydroxy-N—((S)-1-(4-(4-methylthiazol-5-yl)phenyl)ethyl)pyrrolidine-2-carboxamide], the concentration for half-maximal inhibition (IC50) in the assay with MOLT-4 (Table 2) and in the assay on RS4; 11 (Table 2) was 0.1 to 0.5 µM in each case.
On to `Cc1ncsc1-c1ccc([C@H](C)NC(=O)[C@@H]2C[C@@H](O)CN2C(=O)[C@@H](NC(=O)CCCCCCC(=O)N2CCN(C[C@]3(C)CCC(c4ccc(Cl)cc4)=C(CN4CCN(c5ccc(C(=O)NS(=O)(=O)c6ccc(N[C@H](CCN7CCCOCC7)CSc7ccccc7)c(S(=O)(=O)C(F)(F)F)c6)cc5)CC4)C3)C[C@@H]2C)C(C)(C)C)cc1` [Compound 82], for which the IC50 with MOLT-4 (Table 2) was below 0.02 µM; in the assay on RS4; 11 (Table 2), 0.02 to 0.1 µM.
With `Cc1ncsc1-c1ccc([C@H](C)NC(=O)[C@@H]2C[C@@H](O)CN2C(=O)[C@@H](NC(=O)CN2CCC(CC(=O)N3CCN(C[C@]4(C)CCC(c5ccc(Cl)cc5)=C(CN5CCN(c6ccc(C(=O)NS(=O)(=O)c7ccc(N[C@H](CCN8CCCOCC8)CSc8ccccc8)c(S(=O)(=O)C(F)(F)F)c7)cc6)CC5)C4)CC3)CC2)C(C)(C)C)cc1` [Compound 76], the IC50 in the assay on MOLT-4 (Table 2) and in the assay on RS4; 11 (Table 2) was below 0.02 µM throughout.
Consider `Cc1ncsc1-c1ccc([C@H](C)NC(=O)[C@@H]2C[C@@H](O)CN2C(=O)[C@@H](NC(=O)CCCCCCC(=O)N2CCN(C[C@]3(C)CCC(c4ccc(Cl)cc4)=C(CN4CCN(c5ccc(C(=O)NS(=O)(=O)c6ccc(N[C@H](CCN7CC8CCC7C8)CSc7ccccc7)c(S(=O)(=O)C(F)(F)F)c6)cc5)CC4)C3)CC2)C(C)(C)C)cc1` (some centres unmarked) [Compound 67], for which the IC50 in the assay on MOLT-4 (Table 2) and with RS4; 11 (Table 2) was below 0.02 µM in each case.
Consider `COCC[C@H](CSc1ccccc1)Nc1ccc(S(=O)(=O)NC(=O)c2ccc(N3CCN(CC4=C(c5ccc(Cl)cc5)CCC(C)(CN5CCN(C(=O)CCCCCCC(=O)N[C@H](C(=O)N6C[C@H](O)C[C@H]6C(=O)N[C@@H](C)c6ccc(-c7scnc7C)cc6)C(C)(C)C)CC5)C4)CC3)cc2)cc1[N+](=O)[O-]` (stereo partly drawn) [Compound 50, (2S,4R)-1-((2S)-2-(8-(4-((4′-chloro-6-((4-(4-(((4-(((R)-4-methoxy-1-(phenylthio)butan-2-yl)amino)-3-nitrophenyl)sulfonyl)carbamoyl)phenyl)piperazin-1-yl)methyl)-4-methyl-2,3,4,5-tetrahydro-[1,1′-biphenyl]-4-yl)methyl)piperazin-1-yl)-8-oxooctanamido)-3,3-dimethylbutanoyl)-4-hydroxy-N—((S)-1-(4-(4-methylthiazol-5-yl)phenyl)ethyl)pyrrolidine-2-carboxamide], for which the results for the IC50 in the assay on MOLT-4 (Table 2) and in the assay with RS4; 11 (Table 2) were 0.5 to 10 µM and 0.02 to 0.1 µM, respectively.
